Reference: PubChem BioAssay AID2060491 (Molecular Pharmacology Branch, DTP, NCI, 2025)
Several values for one entry are separate records, joined by “and”; a condition that tells them apart may be missing. Equal entries are not always repeated.

Test system: 857933-349-R-J2-PDC complex spheroids, viability
Assay: Anticancer human tumor 857933-349-R-J2-PDC patient-derived colon adenocarcinoma cell line growth inhibition [GQUAD]
Conditions: for viability, T/C: stronger effect = lower value
Description: DNA G-quadruplex Stabilizer Agents in Combinations in Complex Spheroids
A high-throughput screen of multi-cell type tumor spheroids was designed to identify active combinations of DNA G-quadruplex stabilizer agents and targeted small molecules. Complex spheroids include a stromal component modeled by human endothelial cells (HUVEC) and fibroblasts modeled by human mesenchymal stem cells (MSCs). The concentration ranges selected for each drug and investigational agent were based upon clinically achievable concentrations if the clinical Cmax of the agent was known.
Compounds. The drugs and investigational agents: pidnarulex (CX-5461; NSC782164), APTO-253 (NSC789042), BRACO-19 (NSC847499), peposertib (NSC802822), ceralasertib (NSC780249), elimusertib (NSC800525), camonsertib (NSC841442), AZD-1390 (NSC803789), olaparib (NSC753686), talazoparib (NSC767125), ART-558 (NSC835418), sotorasib (NSC818433), MRTX-1133 (NSC836407), SN-38 (NSC673596), topotecan (NSC609699), etoposide (NSC141540), doxorubicin (NSC123127), gemcitabine (NSC613327), 5-fluorouracil (NSC19893), paclitaxel (NSC125973), vemurafenib (NSC761431), panobinostat (NSC761190), R-306465 (JNJ-16241199; NSC773264), adavosertib (NSC754352), TP-3654 (NSC805149), carboplatin (NSC241240), KSQ-4279 (NSC840948), and staurosporine (NSC755774) were obtained from the National Cancer Institute (NCI) Developmental Therapeutics Program Chemical Repository (34). The FDA-approved anticancer drug set is available from the NCI Developmental Therapeutics Program. […] The stock solutions were prepared in dimethyl sulfoxide (DMSO, Sigma-Aldrich, St. Louis, MO, cat. D2650) at 800-fold the tested concentration and stored at -70 degrees C prior to their use. All drugs and investigational agents were tested over a range starting from a high concentration at or near the clinical Cmax and decreasing in half-log increments. If the clinical Cmax for an agent had not been determined, the highest concentration tested was 10 microM.
2.3 Cell Culture. All cells were maintained in an incubator at 37 degrees C and 5% CO2 with 95% humidity. The PDC lines were cultured according to standard operating procedures established by the NCI PDMR. All PDCs were thawed and cultured in Matrigel-coated flasks prepared with a working solution of 1X Ham's F-12 nutrient mix, without supplementation (Invitrogen, cat. 11765054), 100 U/mL penicillin-streptomycin (Invitrogen, cat. 15140122), and 2.5% Matrigel (Corning Inc., cat. 354248) for the first three passages. The 857933-349-R-J2-PDC line was cultured in 6C/Colon 1B media, which includes advanced DMEM/F-12 (Thermo Fisher Scientific, cat. 12634028), 10 mM HEPES (Thermo Fisher Scientific, cat. 15630080), 1X GlutaMAX supplement (Thermo Fisher Scientific, cat. 35050061), 0.1 mg/mL primocin (InvivoGen, cat. ant-pm-2), 10% defined fetal bovine serum, heat inactivated (HyClone Laboratories Inc., cat. SH30070.03HI), 50% L-WRN conditioned media (ATCC, cat. CRL-3276), 1.25 mM N-Acetyl-L-cysteine (Sigma-Aldrich, cat. A9165), 10 mM nicotinamide (Sigma-Aldrich, cat. N0636), 1X B-27 supplement (Thermo Fisher Scientific, cat. 17504044), 1X N-2 supplement (Thermo Fisher Scientific, cat. 17502048), 10 microM Y-27632 dihydrochloride (Tocris Bioscience, cat. 1254), and 50 ng/mL human EGF recombinant protein (Thermo Fisher Scientific, cat. PHG0311). The 485176-168-R4-J1-PDC line was cultured in Panc media, which includes all 6C/Colon 1B media components plus 100 ng/mL human FGF-10 (Thermo Fisher Scientific, cat. 100-26), 500 nM SB-431542 (Selleckchem, cat. S1067), and gastrin (Tocris, cat. 3006).
[…]

[1] = curve of first compound, second compound 0.0316 µM
[2] = curve of first compound, second compound 0.1 µM
[3] = curve of first compound, second compound 0.316 µM
[4] = curve of first compound, second compound 1 µM
[5] = curve of first compound, second compound 3.16 µM
[6] = curve of first compound, second compound 10 µM
[7] = second compound 0.0316 µM, first compound 0.0316 µM
[8] = second compound 0.0316 µM, first compound 0.1 µM
[9] = second compound 0.0316 µM, first compound 0.316 µM
[10] = second compound 0.0316 µM, first compound 1 µM
[11] = second compound 0.0316 µM, first compound 3.16 µM
[12] = second compound 0.0316 µM, first compound 10 µM
[13] = second compound 0.1 µM, first compound 0.0316 µM
[14] = second compound 0.1 µM, first compound 0.1 µM
[15] = second compound 0.1 µM, first compound 0.316 µM
[16] = second compound 0.1 µM, first compound 1 µM
[17] = second compound 0.1 µM, first compound 3.16 µM
[18] = second compound 0.1 µM, first compound 10 µM
[19] = second compound 0.316 µM, first compound 0.0316 µM
[20] = second compound 0.316 µM, first compound 0.1 µM
[21] = second compound 0.316 µM, first compound 0.316 µM
[22] = second compound 0.316 µM, first compound 1 µM
[23] = second compound 0.316 µM, first compound 3.16 µM
[24] = second compound 0.316 µM, first compound 10 µM
[25] = second compound 1 µM, first compound 0.0316 µM
[26] = second compound 1 µM, first compound 0.1 µM
[27] = second compound 1 µM, first compound 0.316 µM
[28] = second compound 1 µM, first compound 1 µM
[29] = second compound 1 µM, first compound 3.16 µM
[30] = second compound 1 µM, first compound 10 µM
[31] = second compound 3.16 µM, first compound 0.0316 µM
[32] = second compound 3.16 µM, first compound 0.1 µM
[33] = second compound 3.16 µM, first compound 0.316 µM
[34] = second compound 3.16 µM, first compound 1 µM
[35] = second compound 3.16 µM, first compound 3.16 µM
[36] = second compound 3.16 µM, first compound 10 µM
[37] = second compound 10 µM, first compound 0.0316 µM
[38] = second compound 10 µM, first compound 0.1 µM
[39] = second compound 10 µM, first compound 0.316 µM
[40] = second compound 10 µM, first compound 1 µM
[41] = second compound 10 µM, first compound 3.16 µM
[42] = second compound 10 µM, first compound 10 µM
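Further: spheroids exposed to compounds for one week before readout.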
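Wherever viability, T/C is given: percent viability relative to vehicle DMSO wells taken as 100%.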

With C=CCn1c(=O)c2cnc(Nc3ccc(N4CCN(C)CC4)cc3)nc2n1-c1cccc(C(C)(C)O)n1 + CN(C)c1ccc(Nc2c3ccc(NC(=O)CCN4CCCC4)cc3nc3cc(NC(=O)CCN4CCCC4)ccc23)cc1 the IC50 [1] was 1840 nM, the IC50 [2] was 1650 nM and the IC50 [3] was 1510 nM. It also gave an IC50 [4] of 1570 nM, an IC50 [5] of 1190 nM and an IC50 [6] of 756 nM. For the same compound, the viability, T/C [7] was 102%, the viability, T/C [8] was 102% and the viability, T/C [9] was 96.6%. It also gave a viability, T/C [10] of 75.7%, a viability, T/C [11] of 26.1% and a viability, T/C [12] of 27.9%. The viability, T/C [13] was 101%, the viability, T/C [14] was 99.4% and the viability, T/C [15] was 99.2%. The viability, T/C [16] was 68.6%, the viability, T/C [17] was 24.3% and the viability, T/C [18] was 27.3%. It also gave a viability, T/C [19] of 97.7%, a viability, T/C [20] of 95.3% and a viability, T/C [21] of 101%. It also gave a viability, T/C [22] of 63.1%, a viability, T/C [23] of 28.4% and a viability, T/C [24] of 24.9%. The viability, T/C [25] was 94.3%, the viability, T/C [26] was 81.6% and the viability, T/C [27] was 87.8%. It also gave a viability, T/C [28] of 60.8%, a viability, T/C [29] of 32.5% and a viability, T/C [30] of 33.8%. For the same compound, the viability, T/C [31] was 88%, the viability, T/C [32] was 73.5% and the viability, T/C [33] was 75.5%. The viability, T/C [34] was 53.5%, the viability, T/C [35] was 31.8% and the viability, T/C [36] was 28.6%. For the same compound, the viability, T/C [37] was 62.1%, the viability, T/C [38] was 62.6% and the viability, T/C [39] was 57.6%. It also gave a viability, T/C [40] of 47.7%, a viability, T/C [41] of 32.2% and a viability, T/C [42] of 25.2%.
For Cc1[nH]c2ccccc2c1CCNCc1ccc(/C=C/C(=O)NO)cc1, the viability, T/C (compound 0.000999 µM) was 100% and 105% (2×), the viability, T/C (compound 0.00316 µM) was 102% (2×) and 105% and the viability, T/C (compound 0.00999 µM) was 102% and 112% and 104%. For the same compound, the viability, T/C (compound 0.0316 µM) was 107% and 104% and 96.4%, the viability, T/C (compound 0.0999 µM) was 102% (2×) and 94.5% and the viability, T/C (compound 0.316 µM) was 53% and 66.9% and 44.9%. For the same compound, the IC50 (curve of compound) was > 316 nM and 283 nM.
With CC1COCCN1c1cc(C2(O)CC3CCC(C2)O3)c2cnn(-c3ccn[nH]3)c2n1 (centres undefined) the viability, T/C (compound 0.0316 µM) was 68.6% and 76.9% and 98%, the viability, T/C (compound 0.1 µM) was 52% and 53% and 88.7% and the viability, T/C (compound 0.316 µM) was 43.7% and 48.3% and 77.2%. The viability, T/C (compound 1 µM) was 38.1% and 42% and 63.5%, the viability, T/C (compound 3.16 µM) was 46.3% and 45.1% and 55.5% and the viability, T/C (compound 10 µM) was 37.5% and 47.3% and 50.1%.
For C#Cc1c(F)ccc2cc(O)cc(-c3ncc4c(N5CC6CCC(C5)N6)nc(OCC56CCCN5CC(F)C6)nc4c3F)c12 (centres undefined) + Cc1cnc(CNC(=O)c2c(=O)c3ccc(N4CCCN(C)CC4)nc3n3c2sc2ccccc23)cn1, the IC50 [1] was > 10000 nM, the IC50 [2] was > 10000 nM and the IC50 [3] was < 31.6 nM. The IC50 [4] was < 31.6 nM, the IC50 [5] was < 31.6 nM and the IC50 [6] was < 31.6 nM. For the same compound, the viability, T/C [7] was 101%, the viability, T/C [8] was 81.6% and the viability, T/C [9] was 72.6%. It also gave a viability, T/C [10] of 64.5%, a viability, T/C [11] of 76.5% and a viability, T/C [12] of 63.5%. The viability, T/C [13] was 59%, the viability, T/C [14] was 64.7% and the viability, T/C [15] was 54.6%. It also gave a viability, T/C [16] of 61.5%, a viability, T/C [17] of 68.3% and a viability, T/C [18] of 64.3%. For the same compound, the viability, T/C [19] was 23.7%, the viability, T/C [20] was 24.6% and the viability, T/C [21] was 22.4%. It also gave a viability, T/C [22] of 19.5%, a viability, T/C [23] of 22.6% and a viability, T/C [24] of 25.7%. It also gave a viability, T/C [25] of 3.9%, a viability, T/C [26] of 5% and a viability, T/C [27] of 2.72%. For the same compound, the viability, T/C [28] was 2.84%, the viability, T/C [29] was 3.14% and the viability, T/C [30] was 1.95%. The viability, T/C [31] was 2.08%, the viability, T/C [32] was 2.35% and the viability, T/C [33] was 1.86%. For the same compound, the viability, T/C [34] was 1.3%, the viability, T/C [35] was 1.63% and the viability, T/C [36] was 0.57%. For the same compound, the viability, T/C [37] was 0.16%, the viability, T/C [38] was 0.2% and the viability, T/C [39] was 0.25%. For the same compound, the viability, T/C [40] was 0.19%, the viability, T/C [41] was 0.24% and the viability, T/C [42] was 0.21%.
In the case of O=C(c1cc(Cc2n[nH]c(=O)c3ccccc23)ccc1F)N1CCN(C(=O)C2CC2)CC1, the viability, T/C (compound 0.0316 µM) is reported as 99.4% and 111% and 122%, the viability, T/C (compound 0.1 µM) is reported as 104% and 105% and 95.9% and the viability, T/C (compound 0.316 µM) is reported as 90.5% and 106% and 98.7%. For the same compound, the viability, T/C (compound 1 µM) was 92.2% and 107% and 88.4%, the viability, T/C (compound 3.16 µM) was 108% and 98.6% and 97% and the viability, T/C (compound 10 µM) was 101% and 106% and 96%. The IC50 (curve of compound) was > 10000 nM.
